{"source": "patent EP0968651A1", "about": "“Pesticidal method and composition” (RHONE-POULENC A[…]., priority 1998, dated 2000)", "test_system": "vine weevil", "experiment": "Drench treatments of potted Fuchsia triphylla hybrid cv. Koralle infested with vine weevil eggs (curative)", "assay_type": "in vivo", "conditions": "curative drench treatment; after 6 months", "method": "In 20-replicate tests, Fuchsia triphylla hybrid cv. Koralle was infested with 15 eggs per pot of vine weevil. Compound A in the form of an 80% water dispersible granule (Regent 800 WG) was suspended in water and added to each pot at the indicated rate per surface area of the pot at various dilutions. After 6 months, the trials were assessed."}
{"smiles": "N#Cc1nn(-c2c(Cl)cc(C(F)(F)F)cc2Cl)c(N)c1[S+]([O-])C(F)(F)F", "note": "(stereo not shown) [Compound A, 5-amino-1-(2,6-dichloro 4-trifluoromethylphenyl) 4-trifluoromethylsulfinyl-3-cyanopyrazole]", "values": [{"measurement": "protection of the plants compared with fonofos", "result": "protected the plants substantially better than the commercial standard fonofos"}]}
